Experimental data as given in patent US8188098B2, “GPR119 receptor agonists” (Hoffmann-La Roche Inc., priority 2008, dated 2012).

target: T1, GPR119 receptor (Mesocricetus auratus, UniProt A0A1U8CD06); assay: cAMP assay in HIT-T15 hamster pancreatic islet cells (functional agonist activity); format: cell-based; settings: HIT-T15 cells endogenously expressing GPR119; 30 min at 25° C.; intracellular cAMP
T1 construct: which endogenously express the GPR119 receptor; host or cells: HIT-T15 hamster pancreatic islet cells
T1 sequence (A0A1U8CD06 1-334): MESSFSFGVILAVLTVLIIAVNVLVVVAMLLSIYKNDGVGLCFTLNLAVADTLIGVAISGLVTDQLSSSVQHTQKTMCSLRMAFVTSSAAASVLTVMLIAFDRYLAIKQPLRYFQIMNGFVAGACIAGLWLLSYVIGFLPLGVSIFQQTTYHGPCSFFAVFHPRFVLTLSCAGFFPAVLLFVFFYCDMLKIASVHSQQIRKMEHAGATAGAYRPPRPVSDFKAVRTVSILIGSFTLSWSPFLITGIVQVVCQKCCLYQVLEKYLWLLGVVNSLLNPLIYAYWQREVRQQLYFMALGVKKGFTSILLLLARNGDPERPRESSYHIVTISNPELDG
Outline: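 HIT-T15 cells (endogenous GPR119), 9000/well, exposed to agonist 30 min at 25° C with 0.5 mM IBMX and 0.5 mg/ml BSA. Lysate cAMP measured by chemiluminescent competitive immunoassay; EC50 from curve fit.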

SMILES	EC50
CC(C)OC(=O)N1CCC(n2ncc3c(Oc4ccc(S(C)(=O)=O)cc4)ncnc32)CC1 [Example 21, 4-[4-(4-Methanesulfonyl-phenoxy)-pyrazolo[3,4-d]pyrimidin-1-yl]-piperidine-1-carboxylic acid isopropyl ester]	0.26 µM
CS(=O)(=O)c1ccc(Oc2ncnc3c2cnn3C2CCN(Cc3ccccc3)CC2)cc1 [Example 157, 1-(1-Benzyl-piperidin-4-yl)-4-(4-methanesulfonyl-phenoxy)-1H-pyrazolo[3,4-d]pyrimidine]	0.58 µM
CS(=O)(=O)c1ccc(Oc2ncnc3c2cnn3C2CCN(Cc3cccc(Cl)c3)CC2)cc1 [Example 158, 1-[1-(3-Chloro-benzyl)-piperidin-4-yl]-4-(4-methanesulfonyl-phenoxy)-1H-pyrazolo[3,4-d]pyrimidine]	0.28 µM
CS(=O)(=O)c1ccc(Oc2ncnc3c2cnn3C2CCN(Cc3ccc(F)cc3)CC2)cc1 [Example 159, 1-[1-(4-Fluoro-benzyl)-piperidin-4-yl]-4-(4-methanesulfonyl-phenoxy)-1H-pyrazolo[3,4-d]pyrimidine]	0.2 µM
CS(=O)(=O)c1ccc(Oc2ncnc3c2cnn3C2CCN(Cc3ccc(Cl)cc3)CC2)cc1 [Example 160, 1-[1-(4-Chloro-benzyl)-piperidin-4-yl]-4-(4-methanesulfonyl-phenoxy)-1H-pyrazolo[3,4-d]pyrimidine]	0.57 µM
CS(=O)(=O)c1ccc(Oc2ncnc3c2cnn3C2CCN(Cc3ccc(C(F)(F)F)cc3)CC2)cc1 [Example 161, 4-(4-Methanesulfonyl-phenoxy)-1-[1-(4-trifluoromethyl-benzyl)-piperidin-4-yl]-1H-pyrazolo[3,4-d]pyrimidine]	0.036 µM
CS(=O)(=O)c1ccc(Oc2ncnc3c2cnn3C2CCN(Cc3cccc(OC(F)(F)F)c3)CC2)cc1 [Example 162, 4-(4-Methanesulfonyl-phenoxy)-1-[1-(3-trifluoromethoxy-benzyl)-piperidin-4-yl]-1H-pyrazolo[3,4-d]pyrimidine]	0.12 µM
CS(=O)(=O)c1ccc(Oc2ncnc3c2cnn3C2CCN(Cc3ccc4c(c3)OC(F)(F)O4)CC2)cc1 [Example 163, 1-[1-(2,2-Difluoro-benzo[1,3]dioxol-5-ylmethyl)-piperidin-4-yl]-4-(4-methanesulfonyl-phenoxy)-1H-pyrazolo[3,4-d]pyrimidine]	0.14 µM
CS(=O)(=O)c1ccc(Oc2ncnc3c2cnn3C2CCN(Cc3ccccc3O)CC2)cc1 [Example 164, 2-{4-[4-(4-Methanesulfonyl-phenoxy)-pyrazolo[3,4-d]pyrimidin-1-yl]-piperidin-1-ylmethyl}-phenol]	0.36 µM
COc1ccccc1CN1CCC(n2ncc3c(Oc4ccc(S(C)(=O)=O)cc4)ncnc32)CC1 [Example 165, 4-(4-Methanesulfonyl-phenoxy)-1-[1-(2-methoxy-benzyl)-piperidin-4-yl]-1H-pyrazolo[3,4-d]pyrimidine]	1.4 µM
CS(=O)(=O)c1ccc(Oc2ncnc3c2cnn3C2CCN(Cc3cccc(C#N)c3)CC2)cc1 [Example 168, 3-{4-[4-(4-Methanesulfonyl-phenoxy)-pyrazolo[3,4-d]pyrimidin-1-yl]-piperidin-1-ylmethyl}-benzonitrile]	1.5 µM
CS(=O)(=O)c1ccc(Oc2ncnc3c2cnn3C2CCN(Cc3nccs3)CC2)cc1 [Example 169, 4-(4-Methanesulfonyl-phenoxy)-(1-thiazol-2-ylmethyl-piperidin-4-yl)-1H-pyrazolo[3,4-d]pyrimidine]	3.6 µM
CC(C)CS(=O)(=O)N1CCC(n2ncc3c(Oc4ccc(S(C)(=O)=O)cc4)ncnc32)CC1 [Example 171, 4-(4-Methanesulfonyl-phenoxy)-1-[1-(2-methyl-propane-1-sulfonyl)-piperidin-4-yl]-1H-pyrazolo[3,4-d]pyrimidine]	0.4 µM
CC(C)(C)OC(=O)N1CCC(n2ncc3c(Oc4ccc(S(C)(=O)=O)cc4)nc(Cl)nc32)CC1 [Example 172, 4-[6-Chloro-4-(4-methanesulfonyl-phenoxy)-pyrazolo[3,4-d]pyrimidin-1-yl]-piperidine-1-carboxylic acid tert-butyl ester]	0.024 µM
CC(C)(C)OC(=O)N1CCC(n2ncc3c(Oc4ccccc4C#N)nc(N)nc32)CC1 [Example 174, 4-[6-Amino-4-(2-cyano-phenoxy)-pyrazolo[3,4-d]pyrimidin-1-yl]-piperidine-1-carboxylic acid tert-butyl ester]	3.4 µM
Cc1nc(Oc2ccc(S(C)(=O)=O)cc2)c2cnn(C3CCN(C(=O)OC(C)(C)C)CC3)c2n1 [Example 175, 4-[4-(4-Methanesulfonyl-phenoxy)-6-methyl-pyrazolo[3,4-d]pyrimidin-1-yl]-piperidine-1-carboxylic acid tert-butyl ester]	0.028 µM

test system: C57B1/6J mice; assay: oral glucose tolerance test (OGTT) in C57B1/6J mice; format: in vivo; settings: 30 mg/kg oral gavage, 2 g/kg glucose bolus two hours after dosing; vs vehicle treated mice
Experimental: The in vivo activity of selected compounds of the invention was characterized using an oral glucose tolerance test in C57B1/6J mice.
C57B1/6J mice were obtained from Jackson Laboratory (Bar Harbor, Me.) and were maintained in a light-dark cycle with lights on from 0600-1800 hr. The mice were received at age nine weeks and given ad libitum access to diet (LabDiet 5001 chow, PMI Nutrition, Brentwood, Mo.), and were at age 10 weeks at the time of study The experiments were conducted during the light phase of the light-dark cycle. Mice (n=10) were weighed and fasted for a four hour period prior to treatment with GPR119 agonists or formulation vehicle via oral gavage. GPR119 agonists were formulated in Klucel vehicle (2% Klucel LF with 0.1% Tween 80, in water) at a concentration of 4.0 mg/mL and the mice were dosed with a 7.5 mL/kg volume to equal a 30 mg/kg dose. Two hours following dosing, the animals were given an oral glucose tolerance test (OGTT). For the OGTT, the animals were given a 2 g/kg glucose bolus via oral gavage. Blood glucose readings were made immediately prior to the glucose challenge, and 30, 60 and 120 minutes following. […] Area under the curve (AUC) for plots of blood glucose vs. time for the individual mice was calculated by the trapezoidal method. […]

SMILES	decrease in mean baseline-subtracted AUC (blood glucose vs. time)
CC(C)OC(=O)N1CCC(n2ncc3c(Oc4ccc(S(C)(=O)=O)cc4)ncnc32)CC1 [Example 21, 4-[4-(4-Methanesulfonyl-phenoxy)-pyrazolo[3,4-d]pyrimidin-1-yl]-piperidine-1-carboxylic acid isopropyl ester]	44%
